Measurements: patent US9783510B2, “Small molecule mediated transcriptional induction of E-cadherin” (Vanderbilt University, priority 2014, dated 2017)

Test system: E-cadherin expression in SW620 cells
Experiment: E-cadherin expression, in-cell Western (ICW), SW620 cells
Format: cell-based
Conditions: for fold induction at 10 µM / EC50: Homo sapiens; for fold induction at 10 µM: SW-620, 24 h; for EC50: SW-620, inducement of E-cadherin expression in SW620 cells
Procedure: SW620 and H520 cells (5×10^4/100 μL) were seeded in a 96-well plate prior to treatment. Cells were treated with 10 μM concentration of synthesized compound in quadruplicate for 24 hours in RPMI 1640 supplemented medium and 100 μg/mL penicillin-streptomycin. The cells were then fixed with 100% methanol for 20 minutes at 4° C. The wells were then washed 2 times with PBS, permeabilized in 2% bovine serum albumin (BSA) and 0.2% TritonX-100 in PBS for 30 minutes at room temperature with gentle agitation, and blocked in LI-COR blocking buffer for 30 minutes at room temperature with gentle agitation. The cells were then incubated with the following primary antibodies: anti-E-Cadherin (1:500) and anti-α-Tubulin (1:1000) diluted in blocking buffer (1:1 dilution in PBS) for 2 hours at room temperature with gentle agitation. The cells were washed 4 times in PBS-T for 5 minutes each, and then incubated with the following secondary antibodies conjugated to a fluorescent entity: IRDye 800-conjugated goat anti-rabbit IgG (1:1000) and IRDye-700-conjugated goat anti-mouse IgG (1:2000) in blocking buffer (1:1 dilution in PBS) with gentle agitation for 1 h at room temperature. The cells were washed 4 times in PBS-T for 5 minutes each followed by a single wash with PBS. All liquid was removed from the wells and the plates were visualized and analyzed on the Odyssey IR imaging system (LI-COR Biosciences).
The assay was further optimized in the following manner. The cells were washed 2 times with PBS, fixed in 100% methanol at room temperature for 15 minutes, and again washed 2 times with PBS. The cells were then incubated with the following primary antibodies: anti-E-Cadherin (1:200) and anti-α-Tubulin (1:2000) diluted in ice cold 2% bovine serum albumin (BSA) and 0.2% TritonX-100 in PBS for 1 hour at room temperature with gentle agitation. The cells were washed 2 times in PBS and then incubated with the following secondary antibodies conjugated to a fluorescent entity: Licor 800-conjugated goat anti-rabbit IgG (1:2000) and IRDye-700-conjugated goat anti-mouse IgG (1:2000) in ice cold 2% BSA and 0.2% TritonX-100 in PBS with gentle agitation for 45 minutes at room temperature. The wells were washed 2 times in PBS, dried, and analyzed as previously mentioned.
N-Acetamidoalkyl-5-arylisoxazole-3-carboxamide analogs were synthesized as described above. Changes in expression level of E-cadherin in response to 10 μM compound in SW620 cells was determined in a cell-based functional assay as described above, and the data are shown in Table III. The compound number corresponds to the compound numbers used in Table II.
EC50 of inducement of E-cadherin expression in SW620 cells was determined in a cell-based functional assay as described above, and the data are shown in Table V. The compound number corresponds to the compound numbers used in Table IV.

[1] = change in expression level of E-cadherin in response to 10 μM compound, 24 hours, SW620 cells

| EC50 | Compound | fold induction at 10 µM [1] | fold change SW620 ICW [1] |
| --- | --- | --- | --- |
|  | O=C(NCCCNC(=O)c1cc(-c2ccccc2)on1)c1cc(Cl)ccn1 [Compound 57, N-(3-(4-chloropicolinamido)propyl)-5-phenylisoxazole-3-carboxamide] | 3.3 |  |
|  | O=C(NCCCNC(=O)c1cc(-c2cccs2)on1)c1ccc(O)nc1 [Compound 49, N-(3-(6-hydroxynicotinamido)propyl)-5-(thiophen-2-yl)isoxazole-3-carboxamide] | 1.71 |  |
|  | COc1ccc(C(=O)NCCCNC(=O)c2cc(-c3ccccc3)on2)c(OC)n1 [Compound 60, N-(3-(2,6-dimethoxynicotinamido)propyl)-5-phenylisoxazole-3-carboxamide] | 2.32 |  |
|  | Nc1ccc(C(=O)NCCCNC(=O)c2cc(-c3ccccc3)on2)cn1 [Compound 14, N-(3-(6-aminonicotinamido)propyl)-5-phenylisoxazole-3-carboxamide] |  | 0.70 fold |
|  | Cc1nc(C(=O)NCCCNC(=O)c2cc(-c3ccccc3)on2)no1 [Compound 91, 5-methyl-N-(3-(5-phenylisoxazole-3-carboxamido)propyl)-1,2,4-oxadiazole-3-carboxamide] | 3.47 |  |
| 2.57 µM | O=C(Cc1c[nH]c2ccccc12)NCCCNC(=O)c1cc(-c2ccccc2)on1 [Compound 95, N-(3-(2-(1H-indol-3-yl)acetamido)propyl)-5-phenylisoxazole-3-carboxamide] | 4.2 |  |
|  | O=C(NCCCNC(=O)c1nc2ncccn2n1)c1cc(-c2cccs2)on1 [Compound 108, N-(3-([1,2,4]triazolo[1,5-a]pyrimidine-2-carboxamido)propyl)-5-(thiophen-2-yl)isoxazole-3-carboxamide] | 2.45 |  |
|  | Nc1ccc(C(=O)NCCCNC(=O)c2cc(-c3cccs3)on2)cn1 [Compound 79, N-(3-(6-aminonicotinamido)propyl)-5-(thiophen-2-yl)isoxazole-3-carboxamide] | 3.58 |  |
|  | O=C(NCCCNC(=O)c1ccc2ccccc2n1)c1cc(-c2cccs2)on1 [Compound 72, N-(3-(quinoline-2-carboxamido)propyl)-5-(thiophen-2-yl)isoxazole-3-carboxamide] | 3.13 |  |
|  | O=C(Cc1cccc(O)c1)NCCNC(=O)c1cc(-c2ccccc2)on1 [Compound 7, N-(2-(2-(3-hydroxyphenyl)acetamido)ethyl)-5-phenylisoxazole-3-carboxamide] | 2.92 |  |
|  | Cc1ccnc(O)c1C(=O)NCCCNC(=O)c1cc(-c2ccccc2)on1 [Compound 69, N-(3-(2-hydroxy-4-methylnicotinamido)propyl)-5-phenylisoxazole-3-carboxamide] | 2 |  |
|  | O=C(NCCCNC(=O)C1CCCCO1)c1cc(-c2ccccc2)on1 (centres unmarked) [Compound 121, 5-phenyl-N-(3-(tetrahydro-2H-pyran-2-carboxamido)propyl)isoxazole-3-carboxamide] | 3.74 |  |
| 6.35 µM | O=C(NCCCNC(=O)c1occc1-c1ccccc1)c1cc(-c2ccccc2)on1 [Compound 114, 5-phenyl-N-(3-(3-phenylfuran-2-carboxamido)propyl)isoxazole-3-carboxamide] | 4.7 |  |
|  | O=C(NCCCNC(=O)c1cccc(Br)n1)c1cc(-c2ccccc2)on1 [Compound 62, N-(3-(6-bromopicolinamido)propyl)-5-phenylisoxazole-3-carboxamide] | 2.59 |  |
|  | O=C(NCCCNC(=O)c1cc(Br)cnc1O)c1cc(-c2cccs2)on1 [Compound 50, N-(3-(5-bromo-2-hydroxynicotinamido)propyl)-5-(thiophen-2-yl)isoxazole-3-carboxamide] | 1.4 |  |
|  | Cc1ccc(C(=O)NCCCNC(=O)c2cc(-c3ccccc3)on2)o1 [Compound 38, N-(3-(5-methylfuran-2-carboxamido)propyl)-5-phenylisoxazole-3-carboxamide] | 3.37 |  |
|  | O=C(NCCCNC(=O)c1cc(-c2cccs2)on1)c1cc(-c2ccccc2)ccn1 [Compound 106, N-(3-(4-phenylpicolinamido)propyl)-5-(thiophen-2-yl)isoxazole-3-carboxamide] | 3.69 |  |

| EC50 | Compound | fold induction at 10 µM [1] | fold change SW620 ICW [1] |
| --- | --- | --- | --- |
|  | O=C(NCCCNC(=O)c1ccc(Br)o1)c1cc(-c2cccs2)on1 [Compound 74, N-(3-(5-bromofuran-2-carboxamido)propyl)-5-(thiophen-2-yl)isoxazole-3-carboxamide] | 3.06 |  |
|  | COC(=O)c1ccc(C(=O)NCCCNC(=O)c2cc(-c3cccs3)on2)nc1 [Compound 48, methyl 6-((3-(5-(thiophen-2-yl)isoxazole-3-carboxamido)propyl)carbamoyl)nicotinate] | 1.48 |  |
|  | O=C(NCCCNC(=O)c1ccc(Cl)o1)c1cc(-c2cccs2)on1 [Compound 99, N-(3-(5-chlorofuran-2-carboxamido)propyl)-5-(thiophen-2-yl)isoxazole-3-carboxamide] | 3.66 |  |
|  | O=C(NCCNC(=O)c1cnccc1O)c1cc(-c2ccccc2)on1 [Compound 12, N-(2-(4-hydroxynicotinamido)ethyl)-5-phenylisoxazole-3-carboxamide] | 3.25 |  |
|  | Cc1cc(C)c(C(=O)NCCCNC(=O)c2cc(-c3cccs3)on2)o1 [Compound 110, N-(3-(3,5-dimethylfuran-2-carboxamido)propyl)-5-(thiophen-2-yl)isoxazole-3-carboxamide] | 3.74 |  |
|  | Cn1ccc(C(=O)NCCCNC(=O)c2cc(-c3ccccc3)on2)n1 [Compound 28, N-(3-(1-methyl-1H-pyrazole-3-carboxamido)propyl)-5-phenylisoxazole-3-carboxamide] | 3.42 |  |
|  | O=C(NCCCNC(=O)c1cc(-c2cccs2)on1)c1ccnc(O)c1 [Compound 37, N-(3-(2-hydroxyisonicotinamido)propyl)-5-(thiophen-2-yl)isoxazole-3-carboxamide] | 1.83 |  |
|  | O=C(NCCCNC(=O)c1cccc(Br)n1)c1cc(-c2cccs2)on1 [Compound 45, N-(3-(6-bromopicolinamido)propyl)-5-(thiophen-2-yl)isoxazole-3-carboxamide] | 3.35 |  |
|  | CCOc1ncccc1C(=O)NCCCNC(=O)c1cc(-c2cccs2)on1 [Compound 53, N-(3-(2-ethoxynicotinamido)propyl)-5-(thiophen-2-yl)isoxazole-3-carboxamide] | 3.52 |  |
|  | O=C(NCCCNC(=O)c1cc(-c2ccccc2)on1)c1cocn1 [Compound 29, N-(3-(oxazole-4-carboxamido)propyl)-5-phenylisoxazole-3-carboxamide] | 3.35 |  |
|  | O=C(NCCCNC(=O)c1cnn[nH]1)c1cc(-c2cccs2)on1 [Compound 104, N-(3-(1H-1,2,3-triazole-5-carboxamido)propyl)-5-(thiophen-2-yl)isoxazole-3-carboxamide] | 3.13 |  |
| 5.02 µM | O=C(NCCCNC(=O)c1cc(-c2cccs2)on1)c1cccnc1 [Compound 39, N-(3-(nicotinamido)propyl)-5-(thiophen-2-yl)isoxazole-3-carboxamide] | 4.56 |  |
| 5.45 µM | Nc1cncc(C(=O)NCCCNC(=O)c2cc(-c3ccccc3)on2)n1 [Compound 118, N-(3-(6-aminopyrazine-2-carboxamido)propyl)-5-phenylisoxazole-3-carboxamide] | 4.38 |  |
|  | O=C(NCCCNC(=O)c1cc(-c2ccccc2)on1)c1ccc(O)nc1 [Compound 67, N-(3-(6-hydroxynicotinamido)propyl)-5-phenylisoxazole-3-carboxamide] | 1.22 |  |
|  | O=C(NCCCNC(=O)c1ccc(C(F)(F)F)o1)c1cc(-c2cccs2)on1 [Compound 76, 5-(thiophen-2-yl)-N-(3-(5-(trifluoromethyl)furan-2-carboxamido)propyl)isoxazole-3-carboxamide] | 2.68 |  |
|  | Cc1cccnc1C(=O)NCCCNC(=O)c1cc(-c2cccs2)on1 [Compound 55, N-(3-(3-methylpicolinamido)propyl)-5-(thiophen-2-yl)isoxazole-3-carboxamide] | 2.98 |  |
|  | Nc1ccc(C(=O)NCCCNC(=O)c2cc(-c3ccccc3)on2)cc1O [Compound 16, N-(3-(4-amino-3-hydroxybenzamido)propyl)-5-phenylisoxazole-3-carboxamide] | 3.72 |  |
